Measurements taken from patent publication US4080467A, “Pharmaceutical compositions comprising 1,3-dithiolan-2-ylidene malonate derivatives” (Nihon Nohyaku Co., Ltd., priority 1976, dated 1978).

Legend:
[1] = system: Acute Liver Damage associated with Centrilobular Necrosis (carbon tetrachloride); test: Protective effect on acute liver damage associated with centrilobular necrosis (carbon tetrachloride model); assay type: in vivo, mice (four-week-old male, dd strain); conditions: 250 mg/kg oral 6 h before CCl4, average of 5 to 6 mice
Source text: Carbon tetrachloride (CCl4) administration induces centrilobular necrosis of the liver associated with loss of diphosphopyridine nucleotide, hepatic glycogen, coenzyme A and increase in neutral fat. Release of several enzymes from the hepatocytes, and increases of enzyme activities in the plasma are recognized as the result of the damage of the liver. A suitable means for evaluating the degree of damage induced by CCl4 or the degree of protection afforded by drugs is to study the plasma glutamic-pyruvic transaminase (p-GPT) activity.
Method: The test compounds were dissolved or suspended in olive oil and administered orally at the dose of 250 mg/kg to the mice (Four-week-old male mice-dd strain). After 6 hours, CCl4 was administered orally (0.05 ml/kg as olive oil solution). Animals were killed 24 hours after CCl4 administration, and the liver was grossly observed. The plasma was obtained by centrifugation. Activities of p-GPT were determined by the method of Reitman and Frankel and expressed in Karmen units.
Score for liver damage was as follows: […]
4 Clearly observable damage
Each figure indicates average of 5 to 6 mice. Values of p-GPT over 1,000 Karmen unit regarded as 1,000 for calculation of average for convenience.

[2] = system: Chronic Liver Damage (thioacetamide); test: Therapeutic effect on chronic liver damage (thioacetamide model), BSP test; assay type: in vivo, rats (Sprague Dawley strain); conditions: 12 times TAA 100 mg/kg, then diet + 0.2% compound
Protocol: In the tests of this Example, TAA was repeatedly administered to animals to prepare test animals suffering from somewhat chronic liver damages, and then the present compounds were administered thereto to know whether or not the compounds were effective against chronic hepatitis.
The degree of the liver damage and the therapeutic effects of the compounds were evaluated according to BSP test. The BSP test is a method in which BSP (sulfobromophthalein sodium), a dye known to be quickly metabolized in and excreted from the liver, is intravenously injected into animals and, after a definite period of time, the blood is taken out to measure the amount of BSP remaining in the plasma. In case the animals are suffering from the liver damage, the dye will remain, according to the degree of the damage, at the stage where a major portion of BSP is metabolized and excreted in the case of normal animals.
Five groups of rats (Sprague Dawley strain) were treated as follows:
Group A: The rats were orally administered with 100 mg/kg of thioacetamide,at 3 days intervals for 36 days (12 times of the administration), then were submitted for 10 days to a normal diet.
Group B: The rats were orally administered with 100 mg/kg of thioacetamide at 3 days intervals for 36 days (12 times of the administration), then were submitted for 10 days to the normal diet + 0.2% of compound 4.
Group C: The rats were orally administered with 100 mg/kg of thioacetamide at 3 days intervals for 36 days (12 times of the administration) then were submitted for 10 days to the normal diet + 0.2% of compound 2.
Group D: The rats were orally administered with 100 mg/kg of thioacetamide at 3 days intervals for 36 days (12 times of the administration) then were submitted for 10 days to the normal diet + 0.2% of anethol trithion.
Group E: The rats were submitted to the normal diet as the control.
Five rats were sacrified from each group at appropriate intervals for BSP (sulfobromophthalein) test, the results of which were shown as amounts (mg) of BSP remaining in 1 dl of plasma.

[3] = system: acute liver damage associated with periportal necrosis (allyl alcohol); test: Protective effect on acute liver damage associated with periportal necrosis (allyl alcohol model), BSP test; assay type: in vivo, male mouse (4 week-old dd-strain); conditions: 100 mg/kg oral 6 h before allyl alcohol 0.075 ml/kg; 24 h after
Protocol: The compound of this invention or anethol trithion was orally administered to the male mouse (4 week-old dd-strain) at the dose of 100 mg/kg. Six hours after it, allyl alcohol was orally administered at the dose of 0.075 ml/kg. Twenty four hours after it, the animals were sacrificed to collect blood samples. The residual quantity of BSP was measured by BSP test, from which the protective effect of the compound of this invention was evaluated.

[4] = system: acute liver damage associated with discrete lobular necrosis (D-galactosamine); test: Protective effect on acute hepatitis with mesenchymal reaction and discrete lobular necrosis (D-galactosamine model); assay type: in vivo, male rat (SD strain); conditions: 100 mg/kg oral 6 h before D-galactosamine
Protocol: D-Galactosamine is a compound which induces a discrete lobular necrosis associated with mesenchymal reaction similar to the change observed in human viral hepatitis, so that it is frequently used in producing a model for viral hepatitis.
The compound of this invention or anethol trithion was administered orally to the male rat (SD strain) at the dose of 100 mg/kg. Six hours after it, D-galacetosamine was intraperitoneally administered at the dose of 600 mg/kg. Four hours after it, an additional 300 mg/kg was administered intraperitoneally. Eight hours after it, the animals were sacrificed to collect the blood samples. P-GPT activity and triglyceride in the liver were measured to evaluate the effect of the compound of this invention.

[5] = system: bile flow and biliary salt; test: Cholagogic action: bile flow and excretion of biliary salt; assay type: in vivo, male rat (4 week-aged, SD-JCL strain); conditions: 200 mg/kg oral; for bile flow / excretion of biliary salt: before treatment = 100
Protocol: The male rat (4 week-aged, SD-JCL strain) was anesthetized with sodium pentobarbital (37.5 mg/kg, intraperitoneal injection). The abdominal cavity was opened through a midline incision. The common bile duct was catheterized with polyethylene tube o.d. 0.8 mm. The catheter was brought to the outside through the abdominal incision wound prior to closing. Bile was collected from the catheter continuously with time intervals of one hour. The quantity of bile produced in one hour was determined by weighing and that of biliary salt was determined by enzymatic method (Ikagaku Jikkenho Koza 1B, Biological Constituents II, edited by Tamio YAMAKAWA). The amount of biliary salts was represented as cholic acid equivalent.
In the representation of the results, the quantities of bile and biliary salts produced in one hour prior to the administration of drug were taken as 100. The compound of this invention was orally administered at the dose of 200 mg/kg. As reference anethol trithion was used.

COc1ccc(-c2cc(=S)ss2)cc1 [Anethol trithion, anethol trithion, reference compound]
p-GPT (plasma glutamic-pyruvic transaminase activity) ([1]; 24 h after CCl4, values over 1,000 regarded as 1,000): 38 Karmen units
Liver Damage Index ([1]; 0 normal, 2 slightly recognized, 4 clearly observable damage, 6 heavy damage): 1.6
Concentration of BSP in plasma ([2]; 2 Days): 9.7 ± 4.1 mg/dL
Concentration of BSP in plasma ([2]; 5 Days): 7.3 ± 3.4 mg/dL
Concentration of BSP in plasma ([2]; 10 Days): 0.9 ± 0.1 mg/dL
Index of hepatotoxicity: BSP (residual quantity of BSP) [3]: 19.3±4.6
Triglyceride in liver [4]: 9.2 ± 1.5 mg/g
p-GPT [4]: 106±30 Karmen unit
bile flow ([5]; 1 hour after treatment): 114±15
excretion of biliary salt ([5]; 1 hour after treatment): 108±12
bile flow ([5]; 2 hours after treatment): 114±15
excretion of biliary salt ([5]; 2 hours after treatment): 89±11
bile flow ([5]; 3 hours after treatment): 102±11
excretion of biliary salt ([5]; 3 hours after treatment): 66±3.8
bile flow ([5]; 4 hours after treatment): 95±7.7
excretion of biliary salt ([5]; 4 hours after treatment): 47±3.0
bile flow ([5]; 5 hours after treatment): 86±6.6
excretion of biliary salt ([5]; 5 hours after treatment): 3.3±4.0
Quantity of total excreted bile for 5 hours relative to control ([5]; versus control): 1.10 times
